In data set [1] the target is T1, NS3-NS4 (Hepatitis C virus genotype 1a, UniProt P27958). The data set can be described thus: NS3-NS4 activity, IC50 (Example 37, Table 8). The data set is classed as biochemical.
Data set [2] addresses T1, NS3-NS4. The data set can be described thus: cell-based. Conditions: EC50, NS3-NS4 activity.
Data set [3] can be described thus: Single ascending dose study, fasted and fed: safety and non-compartmental plasma PK. The format is in vivo, healthy volunteers (human). Conditions: single dose, healthy volunteers. The protocol: A single ascending dose (SAD) study of the compound 100 was conducted in healthy volunteers. The compound 100 was administered as monotherapy both with and without food. The safety and pharmacokinetic profile of the single dose of the compound 100 was assessed.
Interim, blinded data were used for Pharmacokinetic (PK) study relating to food effects. With the exception of the 400 mg cohort, eight subjects were studied at each dose (single doses of 100, 200, or 800 mg of the sodium salt of the compound 100, which may be referred to herein as ITMN-191, administered in the fasting state). In the 400 mg cohort, ten subjects received single 400 mg doses of ITMN-191 under both fasted and fed conditions with a 5-day washout period between dosing. In the 100 mg cohort, subjects were sampled within 1 hour before dosing and at 0.5, 1, 1.5, 2, 2.5, 3, 4, 6, 8, 12, 18, 24, 32 and 48 hours after dosing. For subsequent cohorts, subjects were sampled within 1 hour before dosing and at 0.25, 0.5, 1, 1.5, 2, 2.5, 3, 4, 6, 8, 12, 18, 24, and 32 hours after dosing. Nominal (not actual) sampling times were used for the analysis. PK samples were analyzed using liquid chromatography-tandem mass spectrometry (LC/MS/MS with API 4000 mass spectrometer) following solid-phase extraction. The upper and lower limits of quantitation (ULOQ and LLOQ) are 100 and 0.01 ng/mL, respectively.
Pharmacokinetic parameter estimates were calculated using non-compartmental methods (implemented using Microsoft Excel®). Half-lives were determined by visual inspection of the log concentration-time plots to choose the terminal phase (minimum of three detectable observations). Using linear regression of the chosen terminal phase observations, elimination rate constants were calculated as the negative slope of the regression line and half-life as the natural log of 2 divided by the elimination rate constant.
Ten subjects received single 1600 mg doses of ITMN-191 under both fasted and fed conditions with a 5-day washout period between dosing. For each condition, subjects were sampled within 1 hour before dosing and at 0.25, 0.5, 1, 1.5, 2, 2.5, 3, 4, 6, 8, 12, 18, 24, and 32 hours after dosing. Pharmacokinetic parameter estimates were calculated using non-compartmental methods. Half-life (t1/2) was determined by visual inspection of the log concentration-time plots to choose the terminal phase (minimum of three detectable observations). Using linear regression of the chosen terminal phase observations, elimination rate constants were calculated as the negative slope and half-life as the natural log of 2 divided by the elimination rate constant.

Molecules are shown by their SMILES. Some results are limits rather than exact numbers.

The IC50 is the concentration that gives 50% inhibition. High values mean a need for much substance, low ones inhibition by little substance. A word on the EC50: it is the midpoint of the concentration-response curve. A higher EC50 goes with lower potency in that assay.

T1 sequence (P27958 1027-1657): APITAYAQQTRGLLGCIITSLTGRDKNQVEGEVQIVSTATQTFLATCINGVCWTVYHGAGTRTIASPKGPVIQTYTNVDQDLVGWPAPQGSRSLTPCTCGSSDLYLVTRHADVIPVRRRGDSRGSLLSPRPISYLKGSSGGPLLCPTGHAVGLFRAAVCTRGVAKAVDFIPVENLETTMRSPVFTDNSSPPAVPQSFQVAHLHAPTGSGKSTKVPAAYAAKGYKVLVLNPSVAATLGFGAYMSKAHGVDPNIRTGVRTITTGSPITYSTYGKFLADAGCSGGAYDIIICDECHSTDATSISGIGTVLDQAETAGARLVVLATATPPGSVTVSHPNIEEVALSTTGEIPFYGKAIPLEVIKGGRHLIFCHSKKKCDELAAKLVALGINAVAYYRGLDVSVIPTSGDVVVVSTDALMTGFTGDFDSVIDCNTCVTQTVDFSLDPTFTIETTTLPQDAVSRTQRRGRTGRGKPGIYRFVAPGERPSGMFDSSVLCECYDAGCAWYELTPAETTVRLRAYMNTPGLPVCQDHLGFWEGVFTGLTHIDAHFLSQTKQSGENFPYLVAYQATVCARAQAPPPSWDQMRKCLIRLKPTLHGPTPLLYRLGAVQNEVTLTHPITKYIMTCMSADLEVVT
T1 sequence (P27958 1658-1711): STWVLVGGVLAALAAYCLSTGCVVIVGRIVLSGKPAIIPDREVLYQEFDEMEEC

The compound `CC(C)ONC(=O)[C@@]12C[C@H]1/C=C\CCCCC[C@H](NC(=O)OC(C)(C)C)C(=O)N1C[C@H](OC(=O)N3Cc4cccc(F)c4C3)C[C@H]1C(=O)N2` [Compound 718] yielded a concentration for half-maximal inhibition (IC50) at NS3-NS4 [1] of less than 0.1 µM. This compound registered a concentration giving a half-maximal response (EC50) at NS3-NS4 [2] of less than 0.1 µM.

`CC(C)CONC(=O)[C@@]12C[C@H]1/C=C\CCCCC[C@H](NC(=O)OC(C)(C)C)C(=O)N1C[C@H](OC(=O)N3Cc4cccc(F)c4C3)C[C@H]1C(=O)N2` [Compound 719] showed an IC50 against NS3-NS4 [1] of less than 0.1 µM. Further, on NS3-NS4 [2], the concentration giving a half-maximal response (EC50) is less than 0.1 µM.

In turn, `CC(C)(C)CONC(=O)[C@@]12C[C@H]1/C=C\CCCCC[C@H](NC(=O)OC(C)(C)C)C(=O)N1C[C@H](OC(=O)N3Cc4cccc(F)c4C3)C[C@H]1C(=O)N2` [Compound 720] gave an IC50 against NS3-NS4 [1] of less than 0.1 µM. In addition, the concentration for a half-maximal effect (EC50) at NS3-NS4 [2] was less than 0.1 µM.

`COc1cccc(ONC(=O)[C@@]23C[C@H]2CCCCCCC[C@H](NC(=O)OC(C)(C)C)C(=O)N2C[C@H](OC(=O)N4Cc5cccc(F)c5C4)C[C@H]2C(=O)N3)c1` [Compound 801] displayed a concentration for half-maximal inhibition (IC50) against NS3-NS4 [1] of less than 0.1 µM. Moreover, the EC50 on NS3-NS4 [2] lay within 1 to 10 µM.

`Cc1ccc(ONC(=O)[C@@]23C[C@H]2CCCCCCC[C@H](NC(=O)OC(C)(C)C)C(=O)N2C[C@H](OC(=O)N4Cc5cccc(F)c5C4)C[C@H]2C(=O)N3)cc1C` [Compound 802] returned an IC50 on NS3-NS4 [1] of less than 0.1 µM. Further, the EC50 on NS3-NS4 [2] was in the range of 1 to 10 µM.

In turn, `CC(C)(C)OC(=O)N[C@H]1CCCCCCC[C@@H]2C[C@@]2(C(=O)NOc2ccc(-c3ccccc3)cc2)NC(=O)[C@@H]2C[C@@H](OC(=O)N3Cc4cccc(F)c4C3)CN2C1=O` [Compound 803] had an IC50 against NS3-NS4 [1] of less than 0.1 µM. This compound also yielded an EC50 on NS3-NS4 [2] of 1 to 10 µM.

Turning to `Cc1cccc(ONC(=O)[C@@]23C[C@H]2CCCCCCC[C@H](NC(=O)OC(C)(C)C)C(=O)N2C[C@H](OC(=O)N4Cc5cccc(F)c5C4)C[C@H]2C(=O)N3)c1` [Compound 805], the half-maximal inhibitory concentration (IC50) on NS3-NS4 [1] was less than 0.1 µM. Also, the concentration giving a half-maximal response (EC50) on NS3-NS4 [2] lay within 1 to 10 µM.

The compound `Cc1ccc(C)c(ONC(=O)[C@@]23C[C@H]2CCCCCCC[C@H](NC(=O)OC(C)(C)C)C(=O)N2C[C@H](OC(=O)N4Cc5cccc(F)c5C4)C[C@H]2C(=O)N3)c1` [Compound 806] came in with an IC50 against NS3-NS4 [1] of less than 0.1 µM. At NS3-NS4 [2], this compound came in with a 50% effective concentration (EC50) of 1 to 10 µM.

In the case of `Cc1cc(C)cc(ONC(=O)[C@@]23C[C@H]2CCCCCCC[C@H](NC(=O)OC(C)(C)C)C(=O)N2C[C@H](OC(=O)N4Cc5cccc(F)c5C4)C[C@H]2C(=O)N3)c1` [Compound 807], the IC50 on NS3-NS4 [1] is less than 0.1 µM. Also, the EC50 at NS3-NS4 [2] fell in the range of 1 to 10 µM.

In the case of `Cc1ccc(ONC(=O)[C@@]23C[C@H]2CCCCCCC[C@H](NC(=O)OC(C)(C)C)C(=O)N2C[C@H](OC(=O)N4Cc5cccc(F)c5C4)C[C@H]2C(=O)N3)cc1` [Compound 808], the IC50 against NS3-NS4 [1] was less than 0.1 µM. On NS3-NS4 [2], this compound registered a half-maximal effective concentration (EC50) of 1 to 10 µM.

At NS3-NS4 [1], `CC(C)(C)OC(=O)N[C@H]1CCCCCCC[C@@H]2C[C@@]2(C(=O)NOc2ccc(Cl)cc2)NC(=O)[C@@H]2C[C@@H](OC(=O)N3Cc4cccc(F)c4C3)CN2C1=O` [Compound 809] showed a 50% inhibitory concentration (IC50) of less than 0.1 µM. The concentration for a half-maximal effect (EC50) on NS3-NS4 [2] lay within 1 to 10 µM.

For `CC(C)(C)OC(=O)N[C@H]1CCCCCCC[C@@H]2C[C@@]2(C(=O)NOc2cccc(F)c2)NC(=O)[C@@H]2C[C@@H](OC(=O)N3Cc4cccc(F)c4C3)CN2C1=O` [Compound 810], the IC50 at NS3-NS4 [1] was less than 0.1 µM. The EC50 at NS3-NS4 [2] fell in the range of 1 to 10 µM.

Compound `CC(C)(C)OC(=O)N[C@H]1CCCCCCC[C@@H]2C[C@@]2(C(=O)NOc2ccc(F)cc2)NC(=O)[C@@H]2C[C@@H](OC(=O)N3Cc4cccc(F)c4C3)CN2C1=O` [Compound 811] displayed an IC50 at NS3-NS4 [1] of less than 0.1 µM. Also, the half-maximal effective concentration (EC50) at NS3-NS4 [2] fell in the range of 1 to 10 µM.

For `CC(C)ONC(=O)[C@@]12C[C@H]1CCCCCCC[C@H](NC(=O)OC(C)(C)C)C(=O)N1C[C@H](OC(=O)N3Cc4cccc(F)c4C3)C[C@H]1C(=O)N2` [Compound 812], at NS3-NS4 [1], the concentration for half-maximal inhibition (IC50) is less than 0.1 µM. Moreover, the EC50 at NS3-NS4 [2] was less than 0.1 µM.

With `CC(C)(C)OC(=O)N[C@H]1CCCCCCC[C@@H]2C[C@@]2(C(=O)NOCC2CC2)NC(=O)[C@@H]2C[C@@H](OC(=O)N3Cc4cccc(F)c4C3)CN2C1=O` [Compound 813], the IC50 on NS3-NS4 [1] is less than 0.1 µM. For the same compound, at NS3-NS4 [2], the concentration giving a half-maximal response (EC50) was less than 0.1 µM.

The compound `CC(C)CONC(=O)[C@@]12C[C@H]1CCCCCCC[C@H](NC(=O)OC(C)(C)C)C(=O)N1C[C@H](OC(=O)N3Cc4cccc(F)c4C3)C[C@H]1C(=O)N2` [Compound 814] had an IC50 against NS3-NS4 [1] of less than 0.1 µM. On NS3-NS4 [2], this compound gave a concentration giving a half-maximal response (EC50) of less than 0.1 µM.

Turning to `CC(C)(C)ONC(=O)[C@@]12C[C@H]1CCCCCCC[C@H](NC(=O)OC(C)(C)C)C(=O)N1C[C@H](OC(=O)N3Cc4cccc(F)c4C3)C[C@H]1C(=O)N2` [Compound 815], the IC50 on NS3-NS4 [1] was less than 0.1 µM. On NS3-NS4 [2], this compound yielded a 50% effective concentration (EC50) of less than 0.1 µM.

Compound `CC(C)(C)OC(=O)N[C@H]1CCCCC[C@@H]2C[C@@H]2[C@@H]2C[C@@]2(C(=O)NS(=O)(=O)C2(C)CC2)NC(=O)[C@@H]2C[C@@H](OC(=O)N3Cc4cccc(F)c4C3)CN2C1=O` [Compound 901] registered a 50% inhibitory concentration (IC50) at NS3-NS4 [1] of less than 0.1 µM. At NS3-NS4 [2], this compound showed an EC50 of less than 0.1 µM.

On to `CC(C)(C)OC(=O)N[C@H]1CCCCC[C@@H]2C[C@@H]2[C@@H]2C[C@@]2(C(=O)NS(=O)(=O)C2CC2)NC(=O)[C@@H]2C[C@@H](OC(=O)N3Cc4cccc(F)c4C3)CN2C1=O` [Compound 902], for which the IC50 against NS3-NS4 [1] was less than 0.1 µM. On NS3-NS4 [2], this compound gave a 50% effective concentration (EC50) of less than 0.1 µM.

As to `CC(C)(C)OC(=O)N[C@H]1CCCCC[C@H]2C[C@H]2[C@@H]2C[C@@]2(C(=O)NS(=O)(=O)C2(C)CC2)NC(=O)[C@@H]2C[C@@H](OC(=O)N3Cc4cccc(F)c4C3)CN2C1=O` [Compound 903], the IC50 on NS3-NS4 [1] was less than 0.1 µM. The EC50 at NS3-NS4 [2] is less than 0.1 µM.

As to `CC(C)(C)OC(=O)N[C@H]1CCCCC[C@H]2C[C@H]2[C@@H]2C[C@@]2(C(=O)NS(=O)(=O)C2CC2)NC(=O)[C@@H]2C[C@@H](OC(=O)N3Cc4cccc(F)c4C3)CN2C1=O` [Compound 904], the concentration for half-maximal inhibition (IC50) against NS3-NS4 [1] was less than 0.1 µM. Further, the EC50 at NS3-NS4 [2] was less than 0.1 µM.

Take `CC(C)(C)OC(=O)N[C@H]1CCCCC/C=C\[C@@H]2C[C@@]2(C(=O)NS(=O)(=O)C2CC2)NC(=O)[C@@H]2C[C@@H](OC(=O)N3Cc4cccc(F)c4C3)CN2C1=O` [compound 100]: the tolerability entry in data set [3] (all doses) is recorded as “well tolerated”. Moreover, the “exposure when administered with food, compared to without food” value in data set [3] is “higher than anticipated exposure”.

The values above are taken from patent publication US20090155209A1, “NOVEL MACROCYCLIC INHIBITORS OF HEPATITIS C VIRUS REPLICATION” (priority 2007, published 2009).
